Results on six molecules are retold here after patent US20250186541A1, “DLL3 TARGETING PEPTIDES AND CONSTRUCTS THEREOF” (MARIANA ONCOLOGY INC., priority 2023, published 2025).

One test concerns the target T1, human DLL3 (Homo sapiens, UniProt Q9NYJ7).
T1 construct: biotin (biotinylated)
T1 sequence (Q9NYJ7 27-618): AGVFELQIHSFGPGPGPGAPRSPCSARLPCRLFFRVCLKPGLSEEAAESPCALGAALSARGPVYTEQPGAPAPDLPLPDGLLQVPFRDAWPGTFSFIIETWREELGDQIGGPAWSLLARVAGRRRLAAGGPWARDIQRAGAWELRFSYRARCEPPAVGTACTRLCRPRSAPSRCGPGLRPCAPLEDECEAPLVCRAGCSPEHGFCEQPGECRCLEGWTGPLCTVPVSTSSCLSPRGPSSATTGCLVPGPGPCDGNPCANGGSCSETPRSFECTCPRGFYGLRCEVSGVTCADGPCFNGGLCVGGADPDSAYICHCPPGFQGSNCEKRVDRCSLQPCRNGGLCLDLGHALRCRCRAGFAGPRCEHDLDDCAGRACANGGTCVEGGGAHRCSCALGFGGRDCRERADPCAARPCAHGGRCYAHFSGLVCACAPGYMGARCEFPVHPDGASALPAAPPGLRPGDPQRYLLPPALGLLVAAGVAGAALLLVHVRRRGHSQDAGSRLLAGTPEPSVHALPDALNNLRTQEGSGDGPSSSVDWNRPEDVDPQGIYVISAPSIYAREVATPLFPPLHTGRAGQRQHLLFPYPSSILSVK
Kind of test: Affinity determination by Surface Plasmon Resonance (SPR), Biacore, 1:1 binding model. The following applies: biotinylated human DLL3 on streptavidin chip, 25° C.; NB = nonbinding. The procedure, abridged:
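SPR with biotinylated human DLL3 captured on a streptavidin chip, with a reference surface subtracted. Samples were injected at several concentrations at 100 μL/min in phosphate buffer with 137 mM NaCl, 2.7 mM KCl, 0.05% P20 and 2% DMSO. Kinetic and affinity constants came from a 1:1 binding fit.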
(In general: In SPR one partner is held on a chip, and binding of the other changes the refractive index at the surface.)

For test [1], the system named is SHP-77 cells. Kind of test: Cell binding (total uptake) of [177Lu]Lu-labeled peptide, gamma counter bound fraction. Format: cell-based, human. The following applies: [177Lu]Lu-test peptide, 1 h, 37° C., 1% PBSA. The procedure:
(§1) Example 4. Cell Binding, Internalization, and Radiolabeling of Targeting Moieties Polypeptides General Procedure for Radiolabeling of RPTs with [^177Lu]LuCl3
(§2) [^177Lu]LuCl3 was received from venders in HCl solution. For every mCi of [^177Lu]LUCl3 added to the reaction vial (1.5 mL Eppendorf vial), ammonium acetate buffer (0.2 M, pH 4.9, 100 μL, containing 1% w/v ascorbic acid and 6% v/v ethanol) and peptide conjugate (1 nmol) was added. The pH of the solution was determined to be approximately 5 by using pH strips. The reaction vial was incubated at 80° C., 700 RPM for 17-20 minutes. A sample from the reaction was analyzed by RP-HPLC using an Agilent Infinity II 1260 HPLC to determine reaction completion and radiochemical purity. HPLC conditions: Waters XBridge BEH […] Column, 130 Å, 3.5 um, 4.6 mm×250 mm; mobile phase: Solvent A=water (with 0.1% formic acid), solvent B=acetonitrile (with 0.1% formic acid). Gradients: 25-45% B in 10 minutes, 45-65% B in 12 minutes, 65-90% in 6 minutes at a flow rate of 0.5 mL/min. Required amounts of the product was formulated in 1% PBSA for cell studies.
(§3) The study was conducted using SHP-77cells (Table 7) Adherent cell studies: The cells were cultured in appropriate culture media (20 mL) in tissue culture treated T150 flasks at 37° C. and 5% CO2. Adherent cells were detached (60-70% confluent) using 5 mL Versene at 37° C. for 3 min. After confirming the viability using countess and count of detached cells using Trypan blue, the cells were centrifuged at 4° C. for 5 minutes (1,000 rpm). The cell pellet obtained was washed once with PBS and resuspended in 1% PBSA to obtain the desired cell concentration (5-25 million cells/mL).
(§4) Suspension cell studies: The cells were cultured in appropriate culture media (20 mL) in tissue culture treated T150 flasks at 37° C. and 5% CO2. After confirming the viability and count of detached cells using Trypan blue, the cells were centrifuged at 4° C. for 5 minutes (1,000 rpm). The cell pellet obtained was washed once with PBS and resuspended in 1% PBSA to obtain the desired cell concentration (5-25 million cells/mL).
(§5) Cell numbers used for the assay were in the range of 5 million cells/condition −25 million cells/condition.
Total uptake: Cells were incubated with 300 μL (0.8 μCi) of the incubation buffer (containing radiolabeled peptide [^177Lu]Lu-test peptide) for 1 hour at 37 C (Table 8). Post incubation, the cells were pelleted and washed 2 times using cold PBS+1% BSA. The supernatant and washes were combined and counted together as “unbound fraction” in a gamma counter. The cells were then resuspended in 300 μL of 1% PBS+1% BSA and counted in the gamma counter as “bound fraction”.
(§6) SHP-77 cells are human-derived, non-engineered SCLC cells.

In test [2] the test system is SHP-77 cells. Kind of test: Internalization of [177Lu]Lu-labeled peptide after glycine acid wash, gamma counter internalized fraction. Format: cell-based, human. The following applies: [177Lu]Lu-test peptide, 1 h, 37° C., acid wash 50 mM Glycine pH 2.5. As for the experimental part: as §1, §2, §3, §4, §5
Internalization: The resuspended cells in 300 μl of 1% PBSA and counted in the gamma counter as “bound fraction” were collected in 1.5 ml Eppendorf tube and pelleted. The pelleted cells were incubated with 300 μl of 50 mM Glycine pH=2.5 for 3 minutes and then pelleted discarding the supernatant. This process was repeated one more time. The pelleted cells were washed with 300 μl of cold 1% PBSA and then resuspended in 300 μl 0.3M NaOH. This was counted in the gamma counter as “internalized fraction”.
as §6

A further test concerns the target T2, Biotinylated human DLL3 (human, UniProt Q9NYJ7 27-492, biotinylated (site not stated)).
T2 construct: also called Delta-like ligand 3; Delta Like Canonical Notch Ligand 3
T2 sequence (looked up): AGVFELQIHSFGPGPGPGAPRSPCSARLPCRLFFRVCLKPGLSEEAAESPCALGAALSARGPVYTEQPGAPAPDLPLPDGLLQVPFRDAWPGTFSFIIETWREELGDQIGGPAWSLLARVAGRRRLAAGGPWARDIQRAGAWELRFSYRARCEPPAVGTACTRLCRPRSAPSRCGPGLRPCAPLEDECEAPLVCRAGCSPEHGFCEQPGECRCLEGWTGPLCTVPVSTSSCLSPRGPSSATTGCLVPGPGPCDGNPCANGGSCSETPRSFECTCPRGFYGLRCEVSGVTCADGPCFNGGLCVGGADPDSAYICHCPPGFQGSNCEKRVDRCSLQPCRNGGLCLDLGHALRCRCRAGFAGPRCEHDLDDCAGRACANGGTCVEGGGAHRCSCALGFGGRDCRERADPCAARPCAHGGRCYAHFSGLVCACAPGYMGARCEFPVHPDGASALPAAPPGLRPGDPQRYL
Kind of test: SPR, biotin-hDLL3 on SA chip.

Bridge positions count the residues as written; N and C are the ends. Square brackets hold non-standard residues; d marks the D form. Peptide text beside a SMILES is read from it. * marks the point of attachment. DOTA = O=C(O)CN1CCN(CC(=O)O)CCN(CC(=O)*)CCN(CC(=O)O)CC1; Phe(4-CH2NH2) = NCc1ccc(C[C@H](N)C(=O)O)cc1; 1Nal = N[C@@H](Cc1cccc2ccccc12)C(=O)O; 2Nal = N[C@@H](Cc1ccc2ccccc2c1)C(=O)O; Phe(2-Me) = Cc1ccccc1C[C@H](N)C(=O)O; tBuAla = CC(C)(C)C[C@H](N)C(=O)O; αMeD = C[C@](N)(CC(=O)O)C(=O)O; Chg = N[C@H](C(=O)O)C1CCCCC1; αMeP = C[C@@]1(C(=O)O)CCCN1

As a reminder, the Kd is a measure of binding affinity in units of concentration. Read a low Kd as higher affinity.

Take `CC(=O)N[C@H](C)C(=O)N[C@@H](CO)C(=O)N[C@@H](CC(=O)O)C(=O)N[C@H]1CSSC[C@@H](C(=O)N2CCC[C@@]2(C)C(=O)N[C@@H](Cc2ccccc2)C(=O)N[C@@H](CC(=O)O)C(N)=O)NC(=O)[C@H](CC(N)=O)NC(=O)[C@H](Cc2ccc3ccccc3c2)NC(=O)[C@H](Cc2ccc(CNC(=O)CN3CCN(CC(=O)O)CCN(CC(=O)O)CCN(CC(=O)O)CC3)cc2)NC(=O)[C@H](CC(C)(C)C)NC(=O)[C@H](Cc2cccc3ccccc23)NC1=O` [Cpd #158, Ac-(D-Ala)-S-D-C(3)-(1Nal)-(t-Bu-Ala)-[PAF(DOTA)]-(2Nal)-N-C(3)-(aMe-P)-F -D-CONH2] (Ac-[dA]SDC[1Nal][tBuAla][Phe(4-CH2NH2)](DOTA)[2Nal]NC[αMeP]FD-NH2; disulfide 4-10): at human DLL3, the Kd was 0.12 nM. Also, the “% Binding” value in the test on SHP-77 cells [1] is 25%. Also, in the test on SHP-77 cells [2], the “% Internalization (out of bound fraction)” value is 63%.
As for `CC(=O)N[C@H](C)C(=O)N[C@@H](CO)C(=O)N[C@@](C)(CC(=O)O)C(=O)N[C@H]1CSSC[C@@H](C(=O)N2CCC[C@@]2(C)C(=O)N[C@@H](Cc2ccccc2)C(=O)N[C@@H](CC(=O)O)C(=O)N[C@H](CCCCNC(=O)CN2CCN(CC(=O)O)CCN(CC(=O)O)CCN(CC(=O)O)CC2)C(N)=O)NC(=O)[C@H](CC(N)=O)NC(=O)[C@H](Cc2ccc3ccccc3c2)NC(=O)[C@H](CCC(N)=O)NC(=O)[C@H](CC(C)(C)C)NC(=O)[C@H](Cc2cccc3ccccc23)NC1=O` [Cpd #168, Ac-(D-Ala)-S-(aMe-Asp)-C(3)-(1Nal)-(t-Bu-Ala)-Q-(2Nal)-N-C(3)-(aMe-P)-F-D-[D-Lys(DOTA)]-NH2] (Ac-[dA]S[αMeD]C[1Nal][tBuAla]Q[2Nal]NC[αMeP]FD[dK](DOTA)-NH2; disulfide 4-10), the Kd on human DLL3 was 0.026 nM. Also, the “% Binding” value with SHP-77 cells [1] was 8%. In addition, the “% Internalization (out of bound fraction)” value with SHP-77 cells [2] is reported as 59%.
With `CC(=O)N[C@H](C(=O)N[C@@H](CO)C(=O)N[C@@H](CC(=O)O)C(=O)N[C@H]1CSSC[C@@H](C(=O)N2CCC[C@@]2(C)C(=O)N[C@@H](Cc2ccccc2)C(=O)N[C@@H](CC(=O)O)C(=O)N[C@H](CCCCNC(=O)CN2CCN(CC(=O)O)CCN(CC(=O)O)CCN(CC(=O)O)CC2)C(N)=O)NC(=O)[C@H](CC(N)=O)NC(=O)[C@H](Cc2ccc3ccccc3c2)NC(=O)[C@H](CCC(N)=O)NC(=O)[C@H](C2CCCCC2)NC(=O)[C@H](Cc2cccc3ccccc23)NC1=O)C1CCCCC1` [compound 125, Ac-(Chg)-S-D-C(3)-(1Nal)-(Chg)-Q-(2Nal)-N-C(3)-(aMe-P)-F-D-D-Lys(DOTA)-CONH2] (Ac-[Chg]SDC[1Nal][Chg]Q[2Nal]NC[αMeP]FD[dK](DOTA)-NH2; disulfide 4-10), the Kd at human DLL3 is 0.16 nM. For the same molecule, the “% Binding” value in the test on SHP-77 cells [1] came out at 17%. Further, the “% Internalization (out of bound fraction)” value in the test with SHP-77 cells [2] was found to be 51%.
As for `Cc1ccccc1C[C@H](NC(=O)[C@]1(C)CCCN1C(=O)[C@@H]1CSSC[C@H](NC(=O)[C@H](CC(=O)O)NC(=O)[C@H](CO)NC(=O)[C@@H](C)NC(=O)CN2CCN(CC(=O)O)CCN(CC(=O)O)CCN(CC(=O)O)CC2)C(=O)N[C@@H](Cc2cccc3ccccc23)C(=O)N[C@@H](CC(C)(C)C)C(=O)N[C@@H](CCC(N)=O)C(=O)N[C@@H](Cc2ccc3ccccc3c2)C(=O)N[C@@H](CC(N)=O)C(=O)N1)C(=O)N[C@@H](CC(=O)O)C(N)=O` [compound 154, DOTA-(D-Ala)-S-D-C(3)-(1Nal)-(t-Bu-Ala)-Q-(2Nal)-N-C(3)-(aMe-P)-(2Me-F)-D-CONH2] ({DOTA}-[dA]SDC[1Nal][tBuAla]Q[2Nal]NC[αMeP][Phe(2-Me)]D-NH2; disulfide 4-10), at human DLL3, the equilibrium dissociation constant (Kd) worked out at 0.18 nM. Besides, in the test on SHP-77 cells [1], the “% Binding” value stood at 10%. The “% Internalization (out of bound fraction)” value in the test with SHP-77 cells [2] is recorded as 58%.

B1: Cpd #97 (peptide)
peptide: Ac-[Chg]SDCK(DOTA)LQWNCPFD-NH2
modifications: disulfide 4-10
SMILES: CC(=O)N[C@H](C(=O)N[C@@H](CO)C(=O)N[C@@H](CC(=O)O)C(=O)N[C@H]1CSSC[C@@H](C(=O)N2CCC[C@H]2C(=O)N[C@@H](Cc2ccccc2)C(=O)N[C@@H](CC(=O)O)C(N)=O)NC(=O)[C@H](CC(N)=O)NC(=O)[C@H](Cc2c[nH]c3ccccc23)NC(=O)[C@H](CCC(N)=O)NC(=O)[C@H](CC(C)C)NC(=O)[C@H](CCCCNC(=O)CN2CCN(CC(=O)O)CCN(CC(=O)O)CCN(CC(=O)O)CC2)NC1=O)C1CCCCC1
For the molecule B1, in the test with Biotinylated human DLL3, the binding result is “no binding”.

B2: Cpd #99 (peptide)
peptide: Ac-[Chg]SDCWLQK(DOTA)NCPFD-NH2
modifications: disulfide 4-10
SMILES: CC(=O)N[C@H](C(=O)N[C@@H](CO)C(=O)N[C@@H](CC(=O)O)C(=O)N[C@H]1CSSC[C@@H](C(=O)N2CCC[C@H]2C(=O)N[C@@H](Cc2ccccc2)C(=O)N[C@@H](CC(=O)O)C(N)=O)NC(=O)[C@H](CC(N)=O)NC(=O)[C@H](CCCCNC(=O)CN2CCN(CC(=O)O)CCN(CC(=O)O)CCN(CC(=O)O)CC2)NC(=O)[C@H](CCC(N)=O)NC(=O)[C@H](CC(C)C)NC(=O)[C@H](Cc2c[nH]c3ccccc23)NC1=O)C1CCCCC1
As for B2, the binding result with Biotinylated human DLL3 is listed as “no binding”.
